Measured values taken from patent publication US20240238236A1, “COMPOSITION FOR REGULATING CARBOHYDRATE METABOLISM, AND METHOD FOR ASSESSING CARBOHYDRATE METABOLISM CONDITIONS OF SUBJECT” (KAGAMI INC., priority 2021, published 2024).

Legend:
Assay type in all cases: in vivo
[1] = test system: carbohydrate metabolism-modified mice (type 1 diabetes model); assay: systolic/diastolic blood pressure measurement; details: 80 mM in drinking water; 10 weeks after STZ; vs B6 group
Experimental: (§1) After removing the left kidney of C57BL/6(B6) mice (−2 weeks: −2 w), a group administered an aqueous solution of 20 mM D-alanine (n=5 to 8), 80 mM D-alanine (n=3 to 4), 20 mM D-serine (n=6 to 7) or 80 mM D-serine (n=4) as drinking water, and a group administered water as drinking water as a control (n=8) were administered streptozotocin (STZ) at 50 mg/kg (0 weeks) to create carbohydrate metabolism-modified model mice, and insulin tolerance testing (−1 weeks, 2 weeks), casual blood glucose measurement (0 weeks to 18 weeks), fasting blood glucose measurement (0 weeks to 16 weeks) and systolic/diastolic blood pressure measurement (−1 weeks to 18 weeks) were conducted as appropriate.

[2] = test system: carbohydrate metabolism-modified mice (type 1 diabetes model); assay: insulin tolerance testing (ITT); details: before and at 2 weeks after STZ, vs water control; for blood glucose level and insulin resistance in insulin tolerance testing (ITT): 20 mM in drinking water
Experimental: (§2) After removing the left kidney of C57BL/6(B6) mice (−2 weeks: −2 w), a group administered Risperidone aqueous solution as a DAO inhibitor in drinking water (n=3 to 7) and a group administered water as drinking water (n=9 to 11) as a control were administered streptozotocin (STZ) at 50 mg/kg (0) weeks) to create carbohydrate metabolism-modified model mice, and insulin tolerance testing (−1 weeks, 2 weeks), intra-peritoneal glucose tolerance testing (−1 weeks), casual blood glucose measurement (−1 weeks, 2 weeks, 6 weeks) and fasting blood glucose measurement (−1 weeks, 2 weeks) were conducted as appropriate.
as §1

[3] = test system: db/db mice (type 2 diabetes model); assay: casual blood glucose in db/db mice; details: 20 mM in drinking water, 5 to 18 weeks, vs control group
[4] = test system: carbohydrate metabolism-modified mice (type 1 diabetes model); assay: casual blood glucose measurement; details: for increase in casual blood glucose level: 20 mM in drinking water on D-amino acid-free diet, after STZ (2 weeks); for casual blood glucose level: vs water control
Experimental: (§3) After removing the left kidney of C57BL/6(B6) mice (−2 weeks: −2 w), a D-amino acid-eliminated diet (D-amino acid-free diet, D-fd) was provided, and groups administered aqueous solution of 20 mM D-alanine (n=5), 20 mM D-serine (n=5), 20 mM D-proline (n=5), 20 mM D-leucine (n=5) or water (n=6 to 14) in drinking water, and a group given normal diet and water as a control (n=5), were administered streptozotocin (STZ) at 50 mg/kg (0 weeks) to create carbohydrate metabolism-modified model mice, and blood insulin measurement (−1 weeks, 3 weeks), casual blood glucose measurement (−1 weeks, 2 weeks), fasting blood glucose measurement (−1 weeks, 3 weeks) and measurement of insulin and glucagon in pancreatic islets of Langerhans by antibody staining, were conducted as appropriate.

[5] = test system: carbohydrate metabolism-modified mice (type 1 diabetes model); assay: fasting blood glucose measurement; details: vs water control
Experimental: as §3

[6] = test system: carbohydrate metabolism-modified mice (type 1 diabetes model); assay: death during D-amino acid administration in drinking water; details: 80 mM in drinking water (n=4); within 18 weeks
Experimental: as §1

[7] = test system: carbohydrate metabolism-modified mice (type 1 diabetes model); assay: intra-peritoneal glucose tolerance testing (IPGTT); details: Risperidone in drinking water; B6 mice, -1 weeks; vs water control
Experimental: as §2

[8] = 20 mM or 80 mM in drinking water, dose-dependent, after STZ (0 to 18 weeks)
[9] = 20 mM or 80 mM in drinking water, dose-dependent, after STZ (0 to 16 weeks)

| Structure (SMILES) | diastolic pressure [1] | systolic pressure [1] | blood glucose level and insulin resistance in insulin tolerance testing (ITT) [2] | casual blood glucose level [3] | increase in casual blood glucose level [4] | casual blood glucose level [4, 8] | fasting blood glucose level [5, 9] | death of animals (toxicity) [6] | blood glucose level in insulin tolerance testing (ITT) ([2]; Risperidone aqueous solution in drinking water, left kidney removed, STZ 50 mg/kg B6 mice) | blood glucose level in intra-peritoneal glucose tolerance testing (IPGTT) [7] | casual blood glucose level ([4]; Risperidone in drinking water, after STZ (2, 6 weeks)) | fasting blood glucose level ([5]; Risperidone in drinking water, after STZ (2 weeks)) |
| --- | --- | --- | --- | --- | --- | --- | --- | --- | --- | --- | --- | --- |
| C[C@@H](N)C(=O)O [D-alanine] | lowered | lowered | lower blood glucose levels and lower insulin resistance compared to the control group | lower levels | suppressed | remained at a low levels | remained at a low levels | – | – | – | – | – |
| CC(C)C[C@@H](N)C(=O)O [D-leucine] | – | – | – | – | suppressed | – | – | – | – | – | – | – |
| N[C@H](CO)C(=O)O [D-serine] | – | – | lower blood glucose levels and lower insulin resistance compared to the control group | – | suppressed | remained at a low levels | remained at a low levels | one individual died within 18 weeks | – | – | – | – |
| Cc1nc2n(c(=O)c1CCN1CCC(c3noc4cc(F)ccc34)CC1)CCCC2 [Risperidone, reference compound] | – | – | – | – | – | – | – | – | lower blood glucose levels compared to the control group | lower values for blood glucose level than the control group | remained at low levels in the Risperidone group compared to the control group | remained at low levels in the Risperidone group compared to the control |
